Experimental data reported in US11419865B2, “Method for inducing a sustained immune response” (Cytocom Inc., priority 2016, dated 2022).

What was measured:
Format in all cases: in vivo, human
Hepatitis B = Hepatitis B case report; conditions: 1 mg
women with fibromyalgia = experiment: randomized, double blind, placebo-controlled crossover study, 31 women with fibromyalgia; conditions: 4.5 mg daily
From the text: Thirty-one women with fibromyalgia participated in the randomized, double blind, placebo-controlled, and counterbalanced, crossover study. […]. An intensive longitudinal design was used to measure daily levels of pain. […]; P=0.016). […]. […] […]; P=0.016). […].

[1] = system: patients with active Crohn's disease; experiment: 12-week study of 4.5 mg naltrexone/day in active Crohn's disease (17 patients)
Experimental: . Infliximab was not allowed for a minimum of 8 weeks prior to study initiation. Other therapy for Crohn's disease that was at a stable dose for 4 weeks prior to enrollment was continued at the same doses. Patients completed the inflammatory bowel disease questionnaire (IBDQ) and the short-form (SF-36) quality of life surveys and CDAI scores were assessed pretreatment, every 4 weeks on therapy and 4 weeks after completion of the study drug. Drug was administered by mouth each evening for a 12-week period. RESULTS: Seventeen patients with a mean CDAI score of 356+/−27 were enrolled.

MS patients = experiment: retrospective chart review of MS patients receiving LDN
From the text: This study investigated the safety, tolerability, and benefits (fatigue, reduction) of LDN in patients with MS. It reviewed the number of patients who stopped taking LDN and if there were specific reasons for stopping the LDN. The frequency and variety of side effects that were specific to LDN use are reported. […] 1, 2005 and May 31, 2012. There were 215 MS patients having exposure to LDN during the time of this study. […] In addition to the assessment we review Brain MRIs and Spinal Cord MRIs that were obtained as part of the clinical status of the patient and standard of care.
It reviewed the number of patients who stopped taking IMMEDIATE RELEASE NALTREXONE (LDN) and if there were specific reasons for stopping the IMMEDIATE RELEASE NALTREXONE (LDN). […] 1, 2005 and May 31, 2012. […]. In addition to the assessment we review Brain MRIs and Spinal Cord MRIs that were obtained as part of the clinical status of the patient and standard of care. […].

children with autism = experiment: autism, 155 children in 10 studies
From the text: 155 children participated in 10 studies; 27 received placebo. […].

[2] = system: children with moderate to severe Crohn's disease; experiment: pilot clinical trial in children with moderate to severe Crohn's disease; design: patients in remission (PCDAI score≤10): unit not given here
Experimental: A pilot clinical trial was conducted in children with moderate to severe Crohn's disease. Fourteen subjects with a mean age of 12.3 years (range, 8 to 17 y) were enrolled. […]. Safety and toxicity were monitored by physical examinations and blood chemistries. Clinical activity was assessed by the Pediatric Crohn's Disease Activity Index (PCDAI) and Quality of life was monitored by the Impact III survey. […] […].

[3] = system: women meeting criteria for fibromyalgia; experiment: fibromyalgia study in ten women; conditions: 4.5 mg
From the text: […]. […] Baseline erythrocyte sedimentation rate predicted over 80% of the variance in drug response. […]. Which confirms the ability of Immediate release naltrexone to decree pain and inflammation.

[4] = system: myasthenia gravis patient; experiment: myasthenia gravis case report; conditions: drug interrupted
[5] = system: psoriatic arthritis patient; experiment: psoriatic arthritis case report
[6] = system: Rheumatoid Arthritis patients; experiment: rheumatoid arthritis case reports
Experimental: A person diagnosed with Rheumatoid Arthritis in 2006 and was being treated with methotrexate and plaquenil but patients continued with pain and fatigue. […]
A person diagnosed 5 years ago with RA was treated with Methotrexate 25 mg per week and Remicade 300 U every 6 weeks, the fatigue and pain continued, along with the inflammation and general weakness. Sleep disturbed nightly due to pain in my shoulders and hips. Patient felt their life was not acceptable and none of the immunosuppression drugs were helping. […] Within two weeks patient stopped even ibuprophen. Rheumatoid factor has gone from 127 to 66 in 4 months and has stayed stable. […] Occasionally patient has pain but it is easily controlled with a normal dosage of ibuprophen.
A person, diagnosed with RA in 1999 stayed very active until 2005 on a combination of Methotrexate and Prednisone but was have difficulty maintaining their business due to fatigue and severe joint pain with deformity of their hands and elbows. Patient was told to increase their does and start a second immunomodulating drug. Patient no longer wanted to continue with immunosuppression drug or steroids due to the side effects. […]; they have no pain that can't be handled with aspirin.

Fibromyalgia patient = experiment: Fibromyalgia and Epstein Barr case report
From the text: A person was diagnosed in 1998 Fibromyalgia and Epstein Barr, had to quit work, in pain and very depressed. Various treatments over the years for pain prescribed and other problems with the disease. […]

Shingles = experiment: shingles case report; conditions: 4.5 mg nightly from 2013; before 8 major outbreaks over 18 months
Experimental: A person diagnosed with Shingles in 2010 over 18 months had 8 major outbreaks, and was treated with acyclovir, and valacyclovir, as the outbreaks continued they prescribed Lidocaine patches and pain medications. […]

[7] = 0.1 mg/kg orally, end of the study

## O=C1CC[C@@]2(O)[C@H]3Cc4ccc(O)c5c4[C@@]2(CCN3CC2CC2)[C@H]1O5 [Immediate release naltrexone, naltrexone]
Hepatitis B
  additional benefits, child, Hepatitis B: resolutions of eczema
Hepatitis B; within 7 months
  serology, child, Hepatitis B: Sero-conversion to negative antigens and positive antibodies
Hepatitis B; within one month
  ALT/AST, child, Hepatitis B: decreased to normal
Hepatitis B; within one month, from 59.2 million
  viral load, child, Hepatitis B: 53,000
Women with fibromyalgia
  fatigue or sleep: not improved fatigue or sleep
  tolerability and side effects: rated equally tolerable as placebo, and no serious side effects were reported
Women with fibromyalgia; P=0.039
  mood: improved mood
Women with fibromyalgia; P=0.045
  general satisfaction with life: improved general satisfaction with life
Women with fibromyalgia; placebo 11%, P=0.05
  participants meeting the criteria for response: Thirty-two
[1]; 4.5 mg/day by mouth each evening, 12 weeks, baseline mean 356+/−27, P=0.01
  CDAI scores: decreased significantly
[1]; 4.5 mg/day, 12 weeks
  laboratory abnormalities: No laboratory abnormalities were noted
  patients with response to therapy: Eighty-nine
[1]; 4.5 mg/day, 12 weeks, P<0.001
  patients achieving remission: 67%
[1]; 4 weeks after completing therapy
  CDAI scores after end of therapy: remained lower than baseline
[1]; compared with baseline
  quality of life surveys (IBDQ, SF-36): Improvement was recorded in both quality of life surveys
MS patients; 215 MS patients exposed
  quality of life over a long period of time: improvement in quality of life
MS patients; of 215 patients
  Brain MRI scans showing improvement: 14 MRI scans
MS patients; of 215 patients, new but inactive lesion(s)
  Brain MRI scans slightly worse: 28 MRI scans
Children with autism; 98 of the 128 that received naltrexone
  children with statistically significant improvement in symptoms of irritability and hyperactivity: 77%
Children with autism; in vivo
  side effects and tolerability: Side effects were mild and the drug was generally well tolerated
[2]; 0.1 mg/kg orally
  safety and tolerability: well tolerated without any serious adverse events
[2]; [7]
  patients improved with mild disease activity (decrease in PCDAI score by at least 10 points): 67%
  patients in remission (PCDAI score≤10): Twenty-five
[2]; P=0.035
  Systemic and social quality of life (Impact III): improved
[3]
  Side effects (including insomnia and vivid dreams): rare, and described as minor and transient
[3]; laboratory visits
  mechanical and heat pain thresholds: improved
[4]
  effect of running out of drug, person, myasthenia gravis: symptoms began to return within 72 hours
[5]; 4.5 mg at bedtime, within 10 days
  medication use, person, psoriatic arthritis: able to discontinue all paid medications as well as the Humira
[5]; 4.5 mg, last six months
  disease course, person, psoriatic arthritis: the disease has stabilized and the progressive deterioration has stopped
[6]; 1.5 mg titrated up to 4.5 mg from April of 2009
  medication use, person, Rheumatoid Arthritis: Successfully discontinued methotrexate March of 2010 and then discontinued plaquenil in October of 2010
[6]; 4.5 mg at bedtime
  fatigue, person, RA: Fatigue is gone
[6]; 4.5 mg at bedtime, from 127 in 4 months
  Rheumatoid factor, person, RA: 66
[6]; 4.5 mg at bedtime, within 7 days
  medication use, person, RA: stooped all traditional RA medications
[6]; 4.5 mg with diet, supplements, hormones etc., 7 years later
  disease course, person, RA: RA has not advanced
Fibromyalgia patient; 0.5 mg in 2004 increased to 3 mg
  decrease of pain level, person, Fibromyalgia and Epstein Barr: 90%
Fibromyalgia patient; 0.5 mg increased to 3 mg
  antidepressant use, person, Fibromyalgia: no longer need to take anti-depressants
Shingles
  outbreaks, person, Shingles: have not had a single outbreak
